Data from patent US20230218606A1, “USE OF 4-AMINOQUINOLINE COMPOUND IN TREATMENT OF CORONAVIRUS INFECTION” (priority 2020, published 2023).
Where two headings read alike, the source gives them in different places.

Columns and labels:
SARS-CoV-2 [1] = test: Example 3: co-localization of SARS-CoV-2 virus particles with early endosomes or endolysosomes (immunofluorescence); assay type: cell-based; details: 50 µM drug, veroE6 cells, MOI of 10, 90 min at 37° C.
Description: (at MOI of 10); • 3) the veroE6 cells were washed twice with PBS (purchased from Gibco, Catalog No. C10010500BT) to remove unbound virus particles, freshly pre-warmed MEM culture medium containing 2% FBS was added, and then the veroE6 cells were incubated at 37° C. for 90 min; • 4) the cells were fixed, and the immunofluorescence staining of cells was performed by using anti-virus NP protein antibody (red) (preserved by Wuhan Institute of Virology, Chinese Academy of Sciences) and anti-early endosomal protein EEA antibody (green) (purchased from Cell Signaling Technology, Catalog No. 48453) or anti-lysosomal protein LAMP antibody (green) (purchased from Cell Signaling Technology company, Catalog No. 3243); the nuclei were stained with Hoechst (blue) (purchased from Invitrogen company, Catalog No. H21492); • 5) quantitative analysis of co-localization of virus particles and endosomes of the cells in each group was performed, and co-localization rate was calculated.

Vero-E6 cells = details: Example 1, all test concentrations
Description: (§1) The cytotoxicity test of drugs was carried out by using CCK-8 kit (Beyotime). […] The original medium in the 96-well plate was discarded, 100 µL of the drug-containing MEM medium was taken and added to the cells, and three replicate wells were set for each concentration. A vehicle control (adding DMSO and medium to cells in wells, without adding drug) and a blank control (adding DMSO and medium to the wells, without cells) were set up. After the drug was added, the cells were incubated at 37° C. for 48 hours. • ③ 20 µL of CCK-8 solution (Beyotime) was added to the well to be tested, mixed gently without generating bubbles, and incubated subsequently at 37° C. for 2 hours. OD450 was read on a microplate reader (purchased from Molecular Devices, model: SpectraMax M5), and the reading was substituted into the following formula to calculate cell viability: • [formula] • Wherein, A was the reading of the microplate reader.

SARS-CoV-2 [2] = test: microbe, parasite or virus in culture; assay type: cell-based
DENV-2 = details: cited from earlier work
in vitro = details: African green monkey
Description: as §1

[3] = test system: Zika virus protease NS2B-NS3; details: read-out: inhibitory constant Ki; cited from earlier work
ZIKV = details: pregnant mice, 40 mg/kg/day intraperitoneally from first day after ZIKV infection, compared to PBS; cited from earlier work

CCN(CC)CCCC(C)Nc1ccnc2cc(Cl)ccc12 (stereo not drawn) [chloroquine phosphate]
co-localization rate of virus particles and early endosomes (EES) (SARS-CoV-2 [1]): 35.3%
co-localization rate of virus particles and endolysosomes (ELs) (SARS-CoV-2 [1]): 2.4%
toxic effect on cells (cell viability) (Vero-E6 cells): no toxic effect on cells at all concentrations
inhibition of replication of SARS-CoV-2 virus genome in the infected supernatant (SARS-CoV-2 [2]; Example 1, at 50 µM, 16.67 µM and 5.56 µM): could effectively inhibit the replication
EC50 (SARS-CoV-2 [2]; Severe acute respiratory syndrome coronavirus 2, Vero C1008, 48 h, read-out: half-maximal effective concentration (EC50)): 1.13 µM

CCN(CCO)CCCC(C)Nc1ccnc2cc(Cl)ccc12 (stereo not drawn) [hydroxychloroquine, 2-[[4-[(7-chloroquinolin-4-yl)amino]pentyl]ethylamino]-ethanol]
reduction of DENV-2 virus titer (DENV-2; A549 cell line, 50 to 80 µM): 100 times
IC50 (DENV-2; A549 cells, read-out: IC50 for DENV-2 infected cells): 10.1 ± 1.6 µM
IC50 (DENV-2; Hepa1-6 cells, read-out: IC50 for DENV-2 infected cells): 12.9 ± 4.2 µM
IC50 (DENV-2; J774A.1 macrophages, read-out: IC50, inhibition of DENV-2 infection of macrophages): 9.7 ± 1.3 µM
IC50 (DENV-2; WS-1 cells, read-out: IC50 for DENV-2 infected cells): 12.9 ± 1.9 µM
co-localization rate of virus particles and early endosomes (EES) (SARS-CoV-2 [1]): 29.2%
co-localization rate of virus particles and endolysosomes (ELs) (SARS-CoV-2 [1]): 0.03%
CC50 at 48 h (in vitro): > 250 µM
Ki [3]: 92.3 ± 11.9 µM
level of ZIKV infection in placenta (ZIKV): lower level of ZIKV infection
